Several values for one entry are separate records, joined by “and”; a condition that tells them apart may be missing. Equal entries are not always repeated.
How the values were obtained:
Human plasma stability = assay type: in vitro ADME; details: 100 µM
Method: Finally, further studies were performed in order to investigate the stability in the presence of human plasma. All compounds were incubated at the fixed concentration of 100 µM in plasma for 24 h.
A DMSO stock solution of each compound was incubated in triplicate in the presence of human plasma and HEPES buffer (25 mM, 140 mM NaCl, pH 7.4) at the final concentration of 100 µM at 37 °C under shaking. At the selected time point of 0 and 24 h, 50 µL of the mixture was collected, treated with 1.0 mL of cold ACN, and centrifuged at 5000 rpm for 10 min. The supernatant was collected, and the amount of unmodified compound was quantified with the HLPC-UV/MS method above reported. Calculations of modified compounds were made using time zero as 100% of the unmodified compound.

[1] = system: peripheral blood mononuclear cells (PBMC); design: method as in PMID 21698775; details: read-out: CC50, cytotoxicity; cited from earlier work
in vitro [2] = details: human
HIV = system: HIV; design: method as in PMID 21698775; details: PBMC; read-out: EC50, antiretroviral effect; cited from earlier work
[3] = Aqueous solubility in Mill-Q H2O; details: water, thermodynamic from solid
Method: Chromatographic separations were obtained using a Phenomenex Kinetex C18-100 Å column (150 × 4.6 mm) with 5 µm particle size and gradient elution with a binary solution; (eluent A: H2O acidified with formic acid (FA) 0.1% v/v, eluent B: ACN/MeOH 1:1 v/v) at room temperature. The analysis started with 5% of B (from t = 0 to t = 1 min), then B was increased to 95% (from t = 1 to t = 10 min), then kept at 95% (from t = 10 to t = 15 min) and finally returned to 5% of eluent A in one minute. The instrument worked in positive mode and the UV detector operated at 254 nm.
One mg of each compound was added with 1 mL of Mill-Q H2O. The samples were maintained under shaking at room temperature (RT) overnight. The suspensions were filtered using a 0.45 µm nylon filter (Acrodisc), and the amount of solubilized compound was determined with the HPLC-UV-MS method above reported. The quantification of the solubilized compound was created with the appropriate calibration curve realized with stock solutions in DMSO (0.1–100 µg/mL); the limit of detection (LOD) was quantified at 0.1 µg/mL.

[4] = Parallel artificial membrane permeability assay (PAMPA); assay type: in vitro ADME; details: pH 7.4, 5 h; for Papp at 5 h, 0.5 mM: room temperature, read-out: Apparent Permeability (Papp)
Method: The trend appreciated in terms of solubility was confirmed by results obtained from permeability studies. In fact, parallel artificial membrane permeability assay (PAMPA) underlined how the low solubility of compounds 6 and 7 was accompanied by a major tendency of these derivatives to interact with the lipidic artificial membrane where they probably remained entrapped.
In order to assess the apparent permeability of selected compounds, a stock solution in DMSO of each derivative was prepared at the final concentration of 1 mM. By diluting the stocks 1:1 v/v with phosphate buffer (PBS 25 mM, pH 7.4), donor solutions were made. To mimic the gastrointestinal (GI) phospholipidic bilayer, 10 µL of a 1% w/v dodecane solution of phosphatidylcholine (PC) was used to coat filters. The acceptor solution, made of 1:1 v/v DMSO/PBS, was added to each well (300 µL), while the donor solution (150 µL) was added to each well of the filter plate. The sandwich plates were assembled and incubated for 5 h at room temperature. At the time point, the plates were separated, and the amount of compound passed through the phospholipid bilayer was measured by UV/LC-MS. Finally, apparent permeability (Papp) and membrane retention (MR%) were calculated as previously reported by us.

SARS-CoV-2 = experiment: microbe, parasite or virus in culture; assay type: cell-based; details: for SI, Selectivity Index (ratio between CC50 and IC50): Caco-2 cells, SARS-CoV-2; for IC50: Severe acute respiratory syndrome coronavirus 2, Caco-2, 72 h, read-out: IC50, half-maximal compound concentration inhibiting 50% of the SARS-CoV-2 replication
[5] = system: HIV-1 wild-type reference strain NL4-3; experiment: Anti-HIV-1 BiCycle Assay (H9 cells, then TZM-bl reporter cells); assay type: cell-based; details: Human immunodeficiency virus 1, NL43, H9, read-out: IC50, half-maximal compound concentration inhibiting the 50% of HIV-1 replication
in vitro [6] = details: human; remark: listed apart in the source
human helicase DDX3X = human helicase DDX3X (Homo sapiens, UniProt O00571); experiment: DDX3X ATPase inhibition, ADP-Glo assay; assay type: biochemical
Method: For the more promising compound, derivative 10a, the inhibition of the ATPase activity of the human helicase DDX3X was evaluated. Different concentrations of the compound were incubated with 1 µM of purified recombinant DDX3X and ATPase activity was determined with the ADP-glo assay.
The ATPase enzymatic activity of DDX3X was determined by the ADP-Glo kit (Promega, MD, USA). The reaction was performed in ATPase buffer (20 mM Tris–HCl pH 8, 2 mM DTT, 70 mM KCl, 2 mM MgCl2, 5% DMSO) pre-incubating 1 µM DDX3X with different concentrations of inhibitor for 10 min at 25 °C. ATPase reaction started with the addition of 1 mM ATP. After 30 min of incubation at 25 °C, the assay was conducted following the manufacturer’s instructions. The ATPase enzymatic activity was analyzed using a 384-wells plate and the GloMax Discover Microplate Reader (Promega, MD, USA) and expressed as a percentage of inhibition calculated from the light units obtained.

Sequence of human helicase DDX3X (O00571 whole entry): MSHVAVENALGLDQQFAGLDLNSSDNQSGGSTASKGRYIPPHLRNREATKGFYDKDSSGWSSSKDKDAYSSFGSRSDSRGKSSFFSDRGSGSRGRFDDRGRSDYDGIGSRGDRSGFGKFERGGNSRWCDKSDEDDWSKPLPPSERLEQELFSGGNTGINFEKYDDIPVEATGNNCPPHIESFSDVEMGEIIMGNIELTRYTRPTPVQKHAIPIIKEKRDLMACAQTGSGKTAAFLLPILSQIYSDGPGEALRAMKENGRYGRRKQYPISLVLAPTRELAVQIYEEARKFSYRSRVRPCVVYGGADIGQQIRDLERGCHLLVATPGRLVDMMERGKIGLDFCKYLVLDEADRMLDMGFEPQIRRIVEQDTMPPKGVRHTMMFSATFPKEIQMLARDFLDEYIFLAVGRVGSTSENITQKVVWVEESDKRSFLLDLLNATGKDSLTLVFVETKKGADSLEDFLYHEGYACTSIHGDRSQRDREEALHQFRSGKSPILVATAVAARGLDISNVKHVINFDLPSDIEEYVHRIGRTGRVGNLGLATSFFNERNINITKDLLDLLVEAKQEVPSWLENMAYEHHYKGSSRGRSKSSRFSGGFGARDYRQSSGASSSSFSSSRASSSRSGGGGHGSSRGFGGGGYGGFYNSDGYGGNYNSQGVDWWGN

Oc1ccccc1C=NNc1nc(Nc2ccc(F)cc2)nc(N2CCOCC2)n1 [compound 6]
Plasma Stability % ± SD (Human plasma stability; 24 h, 37 °C): 98.78 ± 4.05%
Plasma Stability % ± SD (Human plasma stability; time 0 h (set as 100%)): 100.00 ± 0.19%
CC50 [1]: 10 µM
CC50 (in vitro [2]): 3000 nM
EC50 (HIV): 2500 nM
solubility [3]: < 0.1 µg/mL
Membrane retention (MR) [4]: 28.7%
Papp at 5 h, 0.5 mM [4]: 4.74 ×10⁻⁶ cm/s

Oc1ccccc1C=NNc1nc(Nc2ccc(F)cc2)nc(Nc2ccc(F)cc2)n1 [compound 7]
Plasma Stability % ± SD (Human plasma stability; 24 h, 37 °C): 99.56 ± 3.78%
Plasma Stability % ± SD (Human plasma stability; time 0 h (set as 100%)): 100.00 ± 0.28%
CC50 [1]: 8 µM
CC50 (in vitro [2]): 800 nM
EC50 (HIV): 2000 nM
solubility [3]: < 0.1 µg/mL
Membrane retention (MR) [4]: 15.5%
Papp at 5 h, 0.5 mM [4]: 4.58 ×10⁻⁶ cm/s

CC(=O)Nc1ccc(/C=N/Nc2nc(N3CCOCC3)nc(N3CCOCC3)n2)cc1 [10b]
Plasma Stability % ± SD (Human plasma stability; 24 h, 37 °C): 98.41 ± 4.69%
Plasma Stability % ± SD (Human plasma stability; time 0 h (set as 100%)): 100.00 ± 0.24%
solubility [3]: 3.46 µg/mL and 8.13 µM
Membrane retention (MR) [4]: 9.8%
Papp at 5 h, 0.5 mM [4]: 9.7 ×10⁻⁶ cm/s

CCC(CC)COC(=O)[C@H](C)N[P@](=O)(OC[C@H]1O[C@@](C#N)(c2ccc3c(N)ncnn23)[C@H](O)[C@@H]1O)Oc1ccccc1 [Remdesivir, reference compound]
CC50 (in vitro [2]): 94900 nM
SI, Selectivity Index (ratio between CC50 and IC50) (SARS-CoV-2): 1356
IC50 (SARS-CoV-2): 0.07 ± 0.04 µM

Cc1nnc(C(=O)NC(C)(C)c2nc(C(=O)NCc3ccc(F)cc3)c(O)c(=O)n2C)o1 [Raltegravir, reference compound]
IC50 [5]: 2.8 ± 1.7 nM
CC50 (in vitro [6]): > 100 µM

Oc1ccccc1/C=N/Nc1nc(N2CCOCC2)nc(N2CCOCC2)n1 [10a]
Plasma Stability % ± SD (Human plasma stability; 24 h, 37 °C): 98.48 ± 4.02%
Plasma Stability % ± SD (Human plasma stability; time 0 h (set as 100%)): 100.00 ± 0.28%
SI, Selectivity Index (ratio between CC50 and IC50) (SARS-CoV-2): >33.1
IC50 (SARS-CoV-2): 12.1 µM
solubility [3]: 3.23 µg/mL and 8.51 µM
Membrane retention (MR) [4]: 4.3%
Papp at 5 h, 0.5 mM [4]: 7.89 ×10⁻⁶ cm/s
IC50 (human helicase DDX3X): 6.6 µM

Cc1cccc(/C=N/Nc2nc(N3CCOCC3)nc(N3CCOCC3)n2)c1 [10c]
Plasma Stability % ± SD (Human plasma stability; 24 h, 37 °C): 99.52 ± 3.45%
Plasma Stability % ± SD (Human plasma stability; time 0 h (set as 100%)): 100.00 ± 0.16%
solubility [3]: 4.5 µg/mL and 11.7 µM
CC50 (in vitro [6]): 74 µM
Membrane retention (MR) [4]: 4.9%
Papp at 5 h, 0.5 mM [4]: 9.78 ×10⁻⁶ cm/s

— paper PMC9782877 (Molecules, 2022)
